Laboratory results from ChEMBL document CHEMBL1201862, “PubChem BioAssay data set” (2004).
Calls of active or inactive are those of the source.

How the values were obtained:
[1] = target: T1, Histone-lysine N-methyltransferase NSD2 (Homo sapiens, UniProt O96028); type: biochemical
T1 sequence (O96028 whole entry): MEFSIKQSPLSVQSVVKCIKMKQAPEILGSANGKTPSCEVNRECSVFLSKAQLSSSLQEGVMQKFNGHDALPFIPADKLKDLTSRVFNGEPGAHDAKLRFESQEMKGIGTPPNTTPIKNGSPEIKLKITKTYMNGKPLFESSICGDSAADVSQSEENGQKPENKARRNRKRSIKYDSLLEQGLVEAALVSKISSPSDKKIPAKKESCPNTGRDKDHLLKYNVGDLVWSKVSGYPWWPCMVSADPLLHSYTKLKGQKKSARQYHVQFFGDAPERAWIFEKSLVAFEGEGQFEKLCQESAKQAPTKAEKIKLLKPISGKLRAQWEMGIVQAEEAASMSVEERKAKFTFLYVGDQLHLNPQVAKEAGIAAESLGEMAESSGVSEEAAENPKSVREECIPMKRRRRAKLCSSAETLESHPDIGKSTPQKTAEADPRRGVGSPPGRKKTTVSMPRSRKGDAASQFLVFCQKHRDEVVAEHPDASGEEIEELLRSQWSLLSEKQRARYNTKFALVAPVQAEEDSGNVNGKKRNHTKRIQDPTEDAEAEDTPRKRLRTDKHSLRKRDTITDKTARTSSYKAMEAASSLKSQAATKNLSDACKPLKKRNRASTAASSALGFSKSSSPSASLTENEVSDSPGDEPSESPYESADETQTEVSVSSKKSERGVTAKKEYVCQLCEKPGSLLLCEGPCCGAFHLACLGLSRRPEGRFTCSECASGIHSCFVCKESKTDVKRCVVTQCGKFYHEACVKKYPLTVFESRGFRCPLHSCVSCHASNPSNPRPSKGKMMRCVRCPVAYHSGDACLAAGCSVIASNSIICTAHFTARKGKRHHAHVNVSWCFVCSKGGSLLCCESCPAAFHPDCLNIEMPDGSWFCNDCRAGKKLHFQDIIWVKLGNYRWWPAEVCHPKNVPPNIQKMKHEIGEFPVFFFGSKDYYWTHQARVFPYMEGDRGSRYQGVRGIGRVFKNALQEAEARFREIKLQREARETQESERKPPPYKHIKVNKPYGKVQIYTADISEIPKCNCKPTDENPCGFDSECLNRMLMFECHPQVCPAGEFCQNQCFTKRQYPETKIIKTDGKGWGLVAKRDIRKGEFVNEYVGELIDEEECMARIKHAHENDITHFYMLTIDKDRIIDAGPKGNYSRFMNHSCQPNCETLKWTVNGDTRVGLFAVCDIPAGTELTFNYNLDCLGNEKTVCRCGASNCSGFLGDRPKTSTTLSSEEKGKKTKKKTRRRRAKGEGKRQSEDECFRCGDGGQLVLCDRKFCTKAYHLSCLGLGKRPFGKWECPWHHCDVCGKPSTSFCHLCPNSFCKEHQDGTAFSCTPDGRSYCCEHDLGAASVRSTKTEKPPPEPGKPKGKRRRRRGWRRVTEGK

[2] = Shn3 3'UTR reporter inhibitors, dose response, cell-based, Clone20 osteoblasts, firefly luciferase, cherry-picked (AID 624132); type: functional;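 also: firefly luciferase luminescence from reporter carrying the Shn3 3'UTR in osteoblasts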
[3] = HepG2 cell cytotoxicity, dose response, cytotoxicity control for Shn3 inhibitor project, CellTiter-Glo, cherry-picked (AID 624134); type: functional, cell-based
[4] = HeLa cell cytotoxicity, dose response, cytotoxicity control for MgcRacGAP inhibitor project (AID 624300); type: functional
Paired box protein Pax-8 = Paired box protein Pax-8 (Homo sapiens, UniProt Q06710); experiment: inhibitors of PAX8-driven TPO luciferase reporter, dose response, RMG-I cells, cherry-pick (AID 687027); type: functional, cell-based;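 also: luciferase reporter driven by Pax8 target thyroperoxidase promoter measured by SteadyGlo luminescence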
[5] = target: T2, Rac GTPase-activating protein 1 (Homo sapiens, UniProt Q9H0H5); experiment: MgcRacGAP GTPase-activating activity inhibitors, confirmation, biochemical, ADP Hunter fluorescence, primary and confirmatory (AID 624330); type: functional
T2 sequence (Q9H0H5 whole entry): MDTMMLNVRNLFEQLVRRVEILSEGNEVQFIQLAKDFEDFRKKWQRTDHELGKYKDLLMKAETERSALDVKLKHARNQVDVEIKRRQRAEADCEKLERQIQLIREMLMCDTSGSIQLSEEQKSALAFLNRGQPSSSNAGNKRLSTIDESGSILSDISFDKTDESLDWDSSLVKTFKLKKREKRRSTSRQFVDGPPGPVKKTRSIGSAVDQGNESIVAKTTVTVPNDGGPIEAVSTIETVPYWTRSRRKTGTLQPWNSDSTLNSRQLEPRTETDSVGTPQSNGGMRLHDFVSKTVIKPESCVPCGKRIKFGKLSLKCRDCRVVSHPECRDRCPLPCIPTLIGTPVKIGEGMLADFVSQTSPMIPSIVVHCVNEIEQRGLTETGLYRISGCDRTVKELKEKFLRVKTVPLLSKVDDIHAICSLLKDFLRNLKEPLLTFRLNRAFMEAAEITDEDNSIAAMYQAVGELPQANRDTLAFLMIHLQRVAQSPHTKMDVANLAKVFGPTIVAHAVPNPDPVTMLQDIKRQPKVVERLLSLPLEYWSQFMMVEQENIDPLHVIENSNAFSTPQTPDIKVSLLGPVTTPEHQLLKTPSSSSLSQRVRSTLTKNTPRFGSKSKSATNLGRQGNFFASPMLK

[6] = control 3'UTR Renilla luciferase suppression, dose response, counter-screen for Shn3 inhibitor project, cell-based, Clone20-Shn3RL, cherry-picked (AID 624133); type: functional
Major prion protein = Major prion protein (Homo sapiens, UniProt P04156); type: functional, cell-based
[7] = target: T3, COUP transcription factor 2 (Homo sapiens, UniProt P24468); experiment: Luminescence-based cell-based high throughput dose response assay to identify inhibitors of COUP-TFII (NR2F2).; type: functional;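 also: HEK293 cells transiently cotransfected with COUP-TFII expression vector and reporter; luciferase reporter luminescence driven by COUP-TFII from the pX2-168 reporter plasmid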
T3 sequence (P24468 whole entry): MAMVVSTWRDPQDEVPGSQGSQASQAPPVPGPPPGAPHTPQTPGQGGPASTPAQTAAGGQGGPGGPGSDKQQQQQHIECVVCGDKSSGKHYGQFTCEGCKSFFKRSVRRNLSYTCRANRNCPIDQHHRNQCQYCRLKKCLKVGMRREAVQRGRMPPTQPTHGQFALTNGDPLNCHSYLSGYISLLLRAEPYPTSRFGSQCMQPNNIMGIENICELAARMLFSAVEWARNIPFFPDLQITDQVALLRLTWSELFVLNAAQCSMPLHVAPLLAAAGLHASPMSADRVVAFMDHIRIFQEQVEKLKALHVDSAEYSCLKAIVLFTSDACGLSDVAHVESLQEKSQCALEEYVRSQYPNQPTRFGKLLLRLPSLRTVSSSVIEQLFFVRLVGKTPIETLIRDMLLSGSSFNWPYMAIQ

Genome polyprotein = Genome polyprotein (dengue virus type 2, UniProt P29990); experiment: Dengue-2 NS5 methyltransferase inhibitors, primary screen, biochemical, confirmation dose response (AID 588689); type: functional
[8] = non-specific cell cytotoxicity, dose response, cytotoxicity control for PAX8 inhibitor project, plate reader, dry powder samples (AID 743021); type: functional, cell-based
[9] = target: T4, Heat shock factor protein 1 (Mus musculus, UniProt P38532); experiment: inhibition of MG132-induced HSE-luciferase signal, confirmation, cell-based, NIH3T3, luminescence, dose retest (AID 2382); type: functional;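 also: NIH3T3 fibroblasts with HSF1-driven luciferase reporter stressed by proteasome inhibitor MG132; luminescence from HSF1-driven luciferase expression after 8 hours of MG132 stress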
T4 sequence (P38532 whole entry): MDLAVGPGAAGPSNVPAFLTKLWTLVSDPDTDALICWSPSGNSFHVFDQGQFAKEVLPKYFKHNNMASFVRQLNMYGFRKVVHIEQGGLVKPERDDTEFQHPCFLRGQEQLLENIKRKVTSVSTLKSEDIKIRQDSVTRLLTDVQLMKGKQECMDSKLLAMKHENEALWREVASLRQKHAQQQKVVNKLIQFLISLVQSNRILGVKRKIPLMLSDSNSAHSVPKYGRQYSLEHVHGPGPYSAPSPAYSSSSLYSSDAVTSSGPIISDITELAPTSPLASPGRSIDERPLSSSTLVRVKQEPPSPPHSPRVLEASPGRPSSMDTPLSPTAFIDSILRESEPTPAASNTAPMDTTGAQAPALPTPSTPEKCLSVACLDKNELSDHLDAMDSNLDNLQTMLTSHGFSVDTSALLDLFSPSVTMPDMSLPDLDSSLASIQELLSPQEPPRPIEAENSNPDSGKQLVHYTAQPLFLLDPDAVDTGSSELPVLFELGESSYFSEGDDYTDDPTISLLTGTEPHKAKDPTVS

Prothrombin = Prothrombin (Homo sapiens, UniProt P00734); experiment: Thrombin 1536 HTS Dose Response Confirmation. [Related pubchem assays: 1046 (Thrombin 1536 HTS; hits were confirmed in this assay)]; type: functional
[10] = target: T5, DNA repair protein RAD52 homolog (Homo sapiens, UniProt P43351); type: functional, biochemical
T5 sequence (P43351 whole entry): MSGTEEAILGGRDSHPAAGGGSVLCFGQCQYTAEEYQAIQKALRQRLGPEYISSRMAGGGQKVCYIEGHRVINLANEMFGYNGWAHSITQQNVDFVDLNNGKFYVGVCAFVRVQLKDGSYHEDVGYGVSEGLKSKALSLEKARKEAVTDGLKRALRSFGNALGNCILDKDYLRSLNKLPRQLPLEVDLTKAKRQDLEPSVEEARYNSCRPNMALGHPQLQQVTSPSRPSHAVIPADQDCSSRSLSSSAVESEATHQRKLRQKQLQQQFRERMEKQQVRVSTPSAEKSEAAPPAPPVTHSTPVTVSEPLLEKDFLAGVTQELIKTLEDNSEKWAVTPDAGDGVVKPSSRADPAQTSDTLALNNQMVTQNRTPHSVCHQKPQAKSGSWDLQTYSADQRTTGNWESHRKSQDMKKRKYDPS

[11] = target: T6, DNA repair and recombination protein RAD54-like (Homo sapiens, UniProt Q92698); experiment: inhibitors of human RAD54 branch migration, confirmation, biochemical, fluorescence, cherry-picked samples, dose series (AID 651657); type: functional
T6 sequence (Q92698 whole entry): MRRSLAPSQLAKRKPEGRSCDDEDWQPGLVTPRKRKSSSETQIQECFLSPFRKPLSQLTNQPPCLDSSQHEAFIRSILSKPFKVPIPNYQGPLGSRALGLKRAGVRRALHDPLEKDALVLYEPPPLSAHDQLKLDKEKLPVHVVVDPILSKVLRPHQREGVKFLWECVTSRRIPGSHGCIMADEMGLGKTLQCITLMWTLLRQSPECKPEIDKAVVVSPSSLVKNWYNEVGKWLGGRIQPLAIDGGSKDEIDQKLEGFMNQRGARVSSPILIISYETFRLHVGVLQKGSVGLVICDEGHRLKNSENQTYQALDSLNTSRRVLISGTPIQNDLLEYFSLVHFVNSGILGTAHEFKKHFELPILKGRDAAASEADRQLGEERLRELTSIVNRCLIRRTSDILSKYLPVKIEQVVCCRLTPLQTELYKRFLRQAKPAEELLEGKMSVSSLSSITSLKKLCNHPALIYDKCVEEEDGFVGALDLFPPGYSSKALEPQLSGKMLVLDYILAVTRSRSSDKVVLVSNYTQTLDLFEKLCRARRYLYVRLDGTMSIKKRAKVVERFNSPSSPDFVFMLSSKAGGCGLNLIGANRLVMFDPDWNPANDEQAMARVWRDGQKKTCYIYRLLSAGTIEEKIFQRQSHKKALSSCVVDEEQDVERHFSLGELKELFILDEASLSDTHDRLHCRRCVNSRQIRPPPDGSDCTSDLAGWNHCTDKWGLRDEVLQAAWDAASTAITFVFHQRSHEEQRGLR

Caspase-6 = target: T7, Caspase-6 (Homo sapiens, UniProt P55212); experiment: human caspase-6 inhibitors, dose response, biochemical, VEID-R110 fluorescence, cherry-pick (AID 720632)
T7 sequence (P55212 whole entry): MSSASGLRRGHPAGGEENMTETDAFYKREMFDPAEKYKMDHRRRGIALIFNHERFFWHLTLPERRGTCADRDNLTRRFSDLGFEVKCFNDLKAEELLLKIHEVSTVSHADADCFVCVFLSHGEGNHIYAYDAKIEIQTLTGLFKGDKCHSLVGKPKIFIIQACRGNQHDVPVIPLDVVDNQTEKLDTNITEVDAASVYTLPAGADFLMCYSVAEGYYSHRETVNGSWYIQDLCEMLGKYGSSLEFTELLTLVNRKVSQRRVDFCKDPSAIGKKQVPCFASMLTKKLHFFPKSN

## CCN(CC)CC(C)(C)C(=O)/C=C/c1ccc(/C=C/C(=O)C(C)(C)CN(CC)CC)cc1
[1]
  AC50: > 20 µM (inactive)
[2]
  AC50: 0.468 µM (active)
[3]
  AC50: 5.07 µM (active)
[4]
  CC50: 65.5 µM (active)
Paired box protein Pax-8
  AC50: 2.2 µM (active)
[5]
  IC50: 158 µM (active)
[6]
  AC50: 1.78 µM (active)

## Cc1cc2cccc(C)c2nc1SCC(=O)NNC(=O)c1ccco1
cells
  IC50: > 138 µM (inactive)
Major prion protein
  IC50: 7.04 µM (active)

## CCOCCCN=C(S)N1CCN(c2nc(-c3ccc(F)cc3)cs2)CC1
[7]
  IC50: 8.63 µM (active)

## O=C(COC(=O)CSc1ccc2ccccc2c1Br)NC1CC1
cells
  IC50: > 138 µM (inactive)
Major prion protein
  IC50: 4.72 µM (active)

## CC1=C/C(=C(\c2cc(C)c(O)c(Br)c2)c2ccccc2S(=O)(=O)O)C=C(Br)C1=O
[1]
  AC50: 14.6 µM (active)
[4]
  CC50: 100 µM (active)
Genome polyprotein
  IC50: 53.2 µM (active)
[5]
  IC50: 79.4 µM (active)

## Cn1c(=S)sc2ccc3ccccc3c21
cells
  IC50: 138 µM (inactive)
Major prion protein
  IC50: 6.25 µM (active)

## CCC(OC(=O)c1ccc(S(C)(=O)=O)c([N+](=O)[O-])c1)C(=O)NC1C2CC3CC(C2)CC1C3 (configuration not stated)
[2]
  AC50: 1.66 µM (active)
[3]
  AC50: 7.27 µM (active)
Paired box protein Pax-8
  AC50: 8.07 µM (active)
[8]
  AC50: 31.1 µM (active)
[6]
  AC50: 4.49 µM (active)

## CC(C)(C)c1ccc(-c2nnc3sc(-c4ccccn4)nn23)cc1
[9]
  EC50: 0.871 µM (active)
[7]
  IC50: > 85.4 µM (inactive)

## CN(C)CCCNc1ncnc2sc(-c3ccccc3)cc12
Prothrombin
  IC50: > 50 µM (not active)
[10]
  AC50: 14.6 µM (active)
[5]
  IC50: 29.9 µM (active)
[11]
  AC50: 17.4 µM (active)

## Cc1cc(=O)n2c3c(c4c(cc13)c(CN(C)C)cc(=O)n4C)OC2
Paired box protein Pax-8
  AC50: 16.8 µM (active)
Caspase-6
  AC50: 4.06 µM (active)
[8]
  AC50: 50 µM (active)
